Data as given in patent US20100063046A1, “TETRACYCLIC IMIDAZOLE ANALOGS” (priority 2006, published 2010).

target: T1, nucleolin (Homo sapiens, UniProt P19338); test: Nucleolin/nucleic acid ligand interaction assay (gel retardation); assay type: binding; parameters: key: A “+” represents the weakest nucleolin affinity; a “++++” represents the strongest nucleolin affinity; settings: relative affinity of each nucleic acid ligand for recombinant nucleolin (MBP fusion, ~250 nM); 32P-labeled ligand; 6% DNA retardation gel
T1 construct: without the N-terminal acidic stretches domain
Procedure: The following assays can be used to assess the effects of compounds on interactions between nucleolin and nucleic acid ligands capable of forming quadruplex (QP) and hairpin (HP) secondary structures. Nucleic acid ligands tested were a cMyc QP DNA having nucleotide sequence 5′-[…]-3′ and a HP pre-rRNA region to which nucleolin binds, having the sequence 5′-[…]-3′. In the assays, recombinant nucleolin (˜250 nM), which has been fused to maltose binding protein, and has the sequence under accession number NM_005381 without the N-terminal acidic stretches domain, is incubated with each of the two ^32P-labeled nucleic acid ligands (10 or 250 nM). Nucleolin and the nucleic acid ligand are incubated in the presence or absence of a test compound 7 in an incubation buffer (12.5 mM Tris, pH 7.6, 60 mM KCl, 1 mM MgCl2, 0.1 mM EDTA, 1 mM DTT, 5% glycerol, 0.1 mg/ml BSA) for 30 minutes at room temperature.
The resulting complexes are separated on a 6% DNA retardation gel using 0.5×TBE with 20 mM KCl as a running buffer. The assay also can be conducted using nucleic acid ligands derived from human ribosomal DNA, whereby one can identify a compound that selectively modulates formation of a nucleolin/nucleic acid complex that depends on the conformation of the nucleic acid. Sequences of suitable nucleic acids are shown in the preceding example. […] A “+” represents the weakest nucleolin affinity and a “++++” represents the strongest nucleolin affinity. […] Using nucleic acids such as these having known conformational properties, one can identify a compound such as the compounds described herein that selectively interferes with binding of nucleolin to a particular quadruplex structure.

T1 sequence (P19338 284-710 limits assumed): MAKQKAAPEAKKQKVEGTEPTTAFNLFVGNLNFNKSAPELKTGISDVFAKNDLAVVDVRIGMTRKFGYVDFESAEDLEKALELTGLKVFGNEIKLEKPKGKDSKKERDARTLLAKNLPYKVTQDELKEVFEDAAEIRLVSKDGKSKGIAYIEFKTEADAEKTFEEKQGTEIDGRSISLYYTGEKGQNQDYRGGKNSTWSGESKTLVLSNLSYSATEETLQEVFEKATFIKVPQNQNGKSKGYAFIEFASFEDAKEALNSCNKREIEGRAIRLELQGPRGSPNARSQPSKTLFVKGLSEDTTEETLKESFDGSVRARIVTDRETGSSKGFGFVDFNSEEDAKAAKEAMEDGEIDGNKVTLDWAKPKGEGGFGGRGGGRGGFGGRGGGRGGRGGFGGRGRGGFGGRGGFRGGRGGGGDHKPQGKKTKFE

Row | Molecule | Affinity for Nucleolin
1 | 6183NT: DNA oligonucleotide from human rDNA non-template strand, GGGTCGGGGGCGGTGGTGGGCCCGCGGGGG (DNA, backbone and methylation of C not given here) [Example 6183NT] | +
2 | 7733T: DNA oligonucleotide from human rDNA template strand, GGGAGGGGCACGGGCCGGGGGCGGGACGGG (DNA, backbone and methylation of C not given here) [Example 7733T] | +
3 | 8511NT: DNA oligonucleotide from human rDNA non-template strand, GGGGGTGGGCGGGCGGGGCCGGGGGTGGG (DNA, backbone and methylation of C not given here) [Example 8511NT] | ++++
4 | 8749NT: DNA oligonucleotide from human rDNA non-template strand, GGGAGGGCGCGCGGGTCGGGG (chemistry not given here) [Example 8749NT] | +
5 | 11028NT: DNA oligonucleotide from human rDNA non-template strand, GGGGCGCGGCGGGGGGAGAAGGGTCGGGGCGGCAGGGG (DNA, backbone and methylation of C not given here) [Example 11028NT] | +
6 | 8762NT: DNA oligonucleotide from human rDNA non-template strand, CGGAGGGCGCGCGGGTCGGGGCGGCGGCGGCGGCGGCGGTGGCGGCGGCGGCGGGGGCGGCGGG (nucleic acid, chemistry not given here) DNA: CGGAGGGCGCGCGGGTCGGGGCGGCGGCGGCGGCGGCGGTGGCGGCGGCGGCGGGGGCGGCGGG | ++++
